EC50 data for 18 compounds are collected here from patent US10954221B2, “GLP-1R agonists and uses thereof” (QILU REGOR THERAPEUTICS INC., priority 2019, dated 2021).

For the test, the target named is GLP1R (Homo sapiens, UniProt P43220). The test can be described thus: GLP1R cAMP assay (HTRF), HEK293/GLP-1R/CRE/Luc, Clone 4.
GLP1R, sequence (P43220 24-463): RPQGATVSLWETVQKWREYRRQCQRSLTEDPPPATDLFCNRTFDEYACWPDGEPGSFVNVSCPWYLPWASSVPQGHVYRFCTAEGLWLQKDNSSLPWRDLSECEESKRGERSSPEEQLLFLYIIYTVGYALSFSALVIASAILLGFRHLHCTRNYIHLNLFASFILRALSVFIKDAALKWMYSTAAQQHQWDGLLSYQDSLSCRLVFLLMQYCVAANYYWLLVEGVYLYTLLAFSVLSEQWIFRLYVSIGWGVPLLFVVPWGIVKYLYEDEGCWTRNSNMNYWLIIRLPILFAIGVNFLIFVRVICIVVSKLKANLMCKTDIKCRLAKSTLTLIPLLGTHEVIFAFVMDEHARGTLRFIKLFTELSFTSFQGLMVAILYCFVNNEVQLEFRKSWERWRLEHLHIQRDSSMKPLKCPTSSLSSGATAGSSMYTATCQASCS

One may read the EC50 as the concentration at which the effect is half-maximal. A high value points to a need for much substance. With `O=C(O)c1ccc2nc(Cc3ccc(-c4nc(OCc5ccc(Cl)cc5F)c(F)cc4F)cc3F)n(C[C@@H]3CCO3)c2c1` [Compound 260, (S)-2-(4-(6-(4-chloro-2-fluorobenzyloxy)-3,5-difluoropyridin-2-yl)-2-fluorobenzyl)-1-(oxetan-2-ylmethyl)-1H-benzo[d]imidazole-6-carboxylic acid], the EC50 is < 15 nM.
For `O=C(O)c1ccc2nc(Cc3ccc(-c4ccc(F)c(OCc5ccc(Cl)cc5F)n4)cc3F)n(C[C@@H]3CCO3)c2n1` [Compound 283, (S)-2-(4-(6-(4-chloro-2-fluorobenzyloxy)-5-fluoropyridin-2-yl)-2-fluorobenzyl)-3-(oxetan-2-ylmethyl)-3H-imidazo[4,5-b]pyridine-5-carboxylic acid] the value was < 15 nM; for `CC1(c2ccc(Cl)cc2F)Oc2cccc(C3=CCN(Cc4nc5ccc(C(=O)O)cc5n4C[C@@H]4CCO4)CC3)c2O1` (stereo partly drawn) [Compound 330, 2-((4-(2-(4-chloro-2-fluorophenyl)-2-methylbenzo[d][1,3]dioxol-4-yl)-5,6-dihydropyridin-1(2H)-yl)methyl)-1-((S)-oxetan-2-ylmethyl)-1H-benzo[d]imidazole-6-carboxylic acid], < 15 nM; for `N#Cc1ccc(COc2nc(-c3ccc(Cc4nc5ccc(C(=O)O)cc5n4C[C@@H]4CCO4)c(F)c3)ccc2F)c(F)c1` [Compound 264, (S)-2-(4-(6-((4-cyano-2-fluorobenzyl)oxy)-5-fluoropyridin-2-yl)-2-fluorobenzyl)-1-(oxetan-2-ylmethyl)-1H-benzo[d]imidazole-6-carboxylic acid], < 15 nM.
In the case of `O=C(O)c1ccc2nc(CN3CC=C(c4nc(OCc5ccc(Cl)cc5F)cs4)CC3)n(C[C@@H]3CCO3)c2c1` [Compound 246, (S)-2-((4-(4-((4-chloro-2-fluorobenzyl)oxy)thiazol-2-yl)-3,6-dihydropyridin-1(2H)-yl)methyl)-1-(oxetan-2-ylmethyl)-1H-benzo[d]imidazole-6-carboxylic acid] it was 15 to 150 nM; in that of `O=C(O)c1ccc2nc(Cc3ccc(-c4cccc(OCc5ccc(-n6ccnc6)cc5)n4)cc3F)n(C[C@@H]3CCO3)c2n1` [Compound 304, (S)-2-(4-(6-((4-(1H-imidazol-1-yl)benzyl)oxy)pyridin-2-yl)-2-fluorobenzyl)-3-(oxetan-2-ylmethyl)-3H-imidazo[4,5-b]pyridine-5-carboxylic acid], < 15 nM.
For `O=C(O)c1ccc2nc(CC3CCC(c4cccc(OCc5ccc(Cl)cc5F)n4)CC3)n(C[C@@H]3CCO3)c2c1` (stereo partly drawn) [Compound 319, (S)-2-((4-(6-((4-chloro-2-fluorobenzyl)oxy)pyridin-2-yl)cyclohexyl)methyl)-1-(oxetan-2-ylmethyl)-1H-benzo[d]imidazole-6-carboxylic acid] the value was 15 to 150 nM.
With `O=C(O)c1ccc2nc(CN3CC=C(c4csc(OCc5ccc(C(F)(F)F)cc5)n4)CC3)n(C[C@@H]3CCO3)c2c1` [Compound 256, (S)-1-(oxetan-2-ylmethyl)-2-((4-(2-((4-(trifluoromethyl)benzyl)oxy)thiazol-4-yl)-3,6-dihydropyridin-1(2H)-yl)methyl)-1H-benzo[d]imidazole-6-carboxylic acid], the concentration for a half-maximal effect (EC50) fell in the range of 15 to 150 nM.
In the case of `N#Cc1ccc(COc2ccc(F)c(-c3ccc(Cc4nc5ccc(C(=O)O)cc5n4C[C@@H]4CCO4)c(F)c3)n2)c(F)c1` [Compound 268, (S)-2-(4-(6-((4-cyano-2-fluorobenzyl)oxy)-3-fluoropyridin-2-yl)-2-fluorobenzyl)-1-(oxetan-2-ylmethyl)-1H-benzo[d]imidazole-6-carboxylic acid] it was < 15 nM; in that of `O=C(O)c1ccc2nc(CN3CC=C(c4csc(OCc5ccc(C(F)(F)F)nc5)n4)CC3)n(C[C@@H]3CCO3)c2c1` [Compound 255, (S)-1-(oxetan-2-ylmethyl)-2-((4-(2-((6-(trifluoromethyl)pyridin-3-yl)methoxy)thiazol-4-yl)-3,6-dihydropyridin-1(2H)-yl)methyl)-1H-benzo[d]imidazole-6-carboxylic acid], 15 to 150 nM; in that of `N#Cc1ccc(COc2cccc(-c3ccc(Nc4nc5ccc(C(=O)O)cc5n4C[C@@H]4CCO4)c(F)c3)n2)c(F)c1` [Compound 320, (S)-2-((4-(6-((4-cyano-2-fluorobenzyl)oxy)pyridin-2-yl)-2-fluorophenyl)amino)-1-(oxetan-2-ylmethyl)-1H-benzo[d]imidazole-6-carboxylic acid], 15 to 150 nM.
In the case of `O=C(O)c1ccc2nc(CN3CC=C(c4csc(OCc5ccc(Cl)cn5)n4)CC3)n(C[C@@H]3CCO3)c2c1` [Compound 250, (S)-2-((4-(2-((5-chloropyridin-2-yl)methoxy)thiazol-4-yl)-3,6-dihydropyridin-1(2H)-yl)methyl)-1-(oxetan-2-ylmethyl)-1H-benzo[d]imidazole-6-carboxylic acid] it was 15 to 150 nM; in that of `N#Cc1ccc(COc2cccc(N3CCC(=Cc4nc5ccc(C(=O)O)nc5n4C[C@@H]4CCO4)CC3)n2)c(F)c1` [Compound 314, (S)-2-((1-(6-(4-cyano-2-fluorobenzyloxy)pyridin-2-yl)piperidin-4-ylidene)methyl)-3-(oxetan-2-ylmethyl)-3H-imidazo [4,5-b] pyridine-S-carboxylic acid], 15 to 150 nM; in that of `O=C(O)c1ccc2nc(Cc3cc(F)c(-c4ncc(F)c(OCc5ncc(Cl)cc5F)n4)cc3F)n(C[C@@H]3CCO3)c2n1` [Compound 273, (S)-2-(4-(4-((5-chloro-3-fluoropyridin-2-yl)methoxy)-5-fluoropyrimidin-2-yl)-2,5-difluorobenzyl)-3-(oxetan-2-ylmethyl)-3H-imidazo[4,5-b]pyridine-5-carboxylic acid], < 15 nM.
Regarding `N#Cc1ccc(COc2nc(-c3ccn(Cc4nc5ccc(C(=O)O)nc5n4C[C@@H]4CCO4)c(=O)c3)ncc2F)c(F)c1` [Compound 325, (S)-2-((4-(4-((4-cyano-2-fluorobenzyl)oxy)-5-fluoropyrimidin-2-yl)-2-oxopyridin-1(2H)-yl)methyl)-3-(oxetan-2-ylmethyl)-3H-imidazo[4,5-b]pyridine-5-carboxylic acid], the EC50 fell in the range of 15 to 150 nM.
In the case of `O=C(O)c1ccc2nc(Cc3cc(F)c(-c4cccc(OCc5ncc(F)cc5F)n4)cc3F)n(C[C@@H]3CCO3)c2n1` [Compound 297, (S)-2-(4-(6-((3,5-difluoropyridin-2-yl)methoxy)pyridin-2-yl)-2,5-difluorobenzyl)-3-(oxetan-2-ylmethyl)-3H-imidazo[4,5-b]pyridine-5-carboxylic acid] it was < 15 nM; in that of `O=C(O)c1ccc2nc(CN3CC=C(c4coc(OCc5ccc(Cl)cc5F)n4)CC3)n(C[C@@H]3CCO3)c2c1` [Compound 248, (S)-2-((4-(2-((4-chloro-2-fluorobenzyl)oxy)oxazol-4-yl)-5,6-dihydropyridin-1(2H)-yl)methyl)-1-(oxetan-2-ylmethyl)-1H-benzo[d]imidazole-6-carboxylic acid], > 1000 nM.
As for `O=C(O)c1ccc2nc(Cc3ccc(-c4nc(OCc5ccc(Cl)cc5F)ccc4F)cc3F)n(C[C@@H]3CCO3)c2c1` [Compound 92, (S)-2-(4-(6-((4-chloro-2-fluorobenzyl)oxy)-3-fluoropyridin-2-yl)-2-fluorobenzyl)-1-(oxetan-2-ylmethyl)-1H-benzo[d]imidazole-6-carboxylic acid], the 50% effective concentration (EC50) is < 15 nM.
